In ChEMBL document CHEMBL6078672, “Chemical probes for the identification of the molecular targets of honokiol” (Eur J Med Chem, 2025):

How the values were obtained:
MDA-MB-231 [1] = test: Cytotoxicity against human MDA-MB-231 cells assessed as inhibition of cell growth incubated for 48 hrs by MTT assay; type: functional, cell-based; details: MDA-MB-231, 48 h
SK-OV-3 = test: Cytotoxicity against human SK-OV-3 cells assessed as inhibition of cell growth incubated for 48 hrs by MTT assay; type: functional, cell-based; details: SK-OV-3, 48 h
OVCAR-3 = test: Cytotoxicity against human OVCAR-3 cells assessed as inhibition of cell growth incubated for 48 hrs by MTT assay; type: functional, cell-based; details: OVCAR-3, 48 h
[2] = target: T1, Protein LYRIC (Homo sapiens) (UniProt Q86UE4); test: Binding affinity to Lyric in human MDA-MB-231 cells assessed as change in melting temperature at 10 uM incubated for 1 hr by cellular thermal shift assay; type: cell-based
T1 sequence (whole entry): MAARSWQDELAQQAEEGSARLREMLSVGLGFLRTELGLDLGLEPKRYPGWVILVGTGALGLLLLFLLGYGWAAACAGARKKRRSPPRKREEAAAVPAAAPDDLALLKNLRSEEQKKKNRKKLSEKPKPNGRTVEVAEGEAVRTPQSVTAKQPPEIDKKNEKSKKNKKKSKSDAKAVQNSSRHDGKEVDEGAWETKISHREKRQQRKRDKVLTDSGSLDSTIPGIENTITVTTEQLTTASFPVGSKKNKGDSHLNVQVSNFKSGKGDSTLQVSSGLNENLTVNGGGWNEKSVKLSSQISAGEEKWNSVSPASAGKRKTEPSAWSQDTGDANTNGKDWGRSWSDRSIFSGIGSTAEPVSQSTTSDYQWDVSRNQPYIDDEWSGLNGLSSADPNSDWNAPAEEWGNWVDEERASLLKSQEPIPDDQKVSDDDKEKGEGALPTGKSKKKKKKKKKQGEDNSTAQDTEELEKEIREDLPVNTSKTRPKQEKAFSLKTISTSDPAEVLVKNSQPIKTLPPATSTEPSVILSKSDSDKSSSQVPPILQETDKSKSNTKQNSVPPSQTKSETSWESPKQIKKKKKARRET

[3] = target: T2, Dipeptidyl peptidase 3 (Homo sapiens) (UniProt Q9NY33); test: Binding affinity to DPP3 in human MDA-MB-231 cells assessed as change in melting temperature at 10 uM incubated for 1 hr by cellular thermal shift assay; type: cell-based
T2 sequence (whole entry): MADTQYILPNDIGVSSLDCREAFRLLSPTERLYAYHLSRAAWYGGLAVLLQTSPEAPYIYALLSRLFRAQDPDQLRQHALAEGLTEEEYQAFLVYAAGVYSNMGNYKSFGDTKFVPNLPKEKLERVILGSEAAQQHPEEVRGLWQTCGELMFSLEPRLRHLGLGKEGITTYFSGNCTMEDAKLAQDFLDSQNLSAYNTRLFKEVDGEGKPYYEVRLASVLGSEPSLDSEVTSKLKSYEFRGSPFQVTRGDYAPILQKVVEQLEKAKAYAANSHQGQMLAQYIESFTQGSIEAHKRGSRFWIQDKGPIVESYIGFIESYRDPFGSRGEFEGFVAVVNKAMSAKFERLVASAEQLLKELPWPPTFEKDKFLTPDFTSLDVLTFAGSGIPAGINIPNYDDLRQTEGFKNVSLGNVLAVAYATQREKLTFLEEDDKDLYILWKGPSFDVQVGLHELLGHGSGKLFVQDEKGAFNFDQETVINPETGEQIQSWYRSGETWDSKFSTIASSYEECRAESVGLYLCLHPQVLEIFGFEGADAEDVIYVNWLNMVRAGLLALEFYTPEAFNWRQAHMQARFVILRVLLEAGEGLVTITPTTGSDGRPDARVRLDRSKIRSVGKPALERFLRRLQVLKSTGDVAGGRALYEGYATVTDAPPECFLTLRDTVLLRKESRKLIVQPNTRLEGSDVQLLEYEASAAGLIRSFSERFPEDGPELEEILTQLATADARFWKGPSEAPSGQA

[4] = target: T3, 6-phosphogluconate dehydrogenase, decarboxylating (Homo sapiens) (UniProt P52209); test: Binding affinity to PGD in human MDA-MB-231 cells assessed as change in melting temperature at 10 uM incubated for 1 hr by cellular thermal shift assay; type: cell-based
T3 sequence (whole entry): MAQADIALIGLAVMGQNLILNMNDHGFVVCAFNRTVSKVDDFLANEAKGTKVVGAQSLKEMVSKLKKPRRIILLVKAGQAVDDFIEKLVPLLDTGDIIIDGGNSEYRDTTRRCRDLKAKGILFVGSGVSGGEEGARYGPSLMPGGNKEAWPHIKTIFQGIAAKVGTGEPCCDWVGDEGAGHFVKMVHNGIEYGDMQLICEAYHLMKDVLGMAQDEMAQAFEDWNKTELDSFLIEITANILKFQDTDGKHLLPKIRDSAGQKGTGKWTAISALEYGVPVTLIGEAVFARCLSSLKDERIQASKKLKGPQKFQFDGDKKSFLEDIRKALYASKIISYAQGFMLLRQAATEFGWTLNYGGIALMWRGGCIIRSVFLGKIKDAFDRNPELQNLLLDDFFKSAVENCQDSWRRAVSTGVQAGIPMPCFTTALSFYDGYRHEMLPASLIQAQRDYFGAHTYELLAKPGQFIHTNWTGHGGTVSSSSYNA

MDA-MB-231 [5] = test: Binding affinity to CAPN-1 in human MDA-MB-231 cells assessed as change in melting temperature at 10 uM incubated for 1 hr by cellular thermal shift assay; type: cell-based
[6] = Drug localization in human MDA-MB-231 cells assessed as increase in fluorescent band intensity incubated for 30 mins in presence of UV irradiation by coomassie brilliant blue staining based SDS-PAGE analysis; type: ADME, cell-based; details: mda-mb-231, 0.5 h
[7] = Drug localization in human MDA-MB-231 cells assessed as increase in fluorescent band intensity at 1 to 10 uM incubated for 30 mins in presence of UV irradiation by coomassie brilliant blue staining based SDS-PAGE analysis; type: ADME, cell-based; details: mda-mb-231, 0.5 h, dose 1-10 µM
[8] = Drug localization in human MDA-MB-231 cells assessed as increase in fluorescent band intensity at 20 uM incubated for 30 mins in presence of UV irradiation by coomassie brilliant blue staining based SDS-PAGE analysis; type: ADME, cell-based; details: mda-mb-231, 0.5 h
[9] = Drug localization in human MDA-MB-231 cells assessed as increase in fluorescent band intensity at 20 uM incubated for 30 mins in absence of UV irradiation by coomassie brilliant blue staining based SDS-PAGE analysis; type: ADME, cell-based; details: mda-mb-231, 0.5 h
[10] = Drug localization in human membrane fraction of MDA-MB-231 cells assessed as increase in fluorescent band intensity at 10 uM incubated for 30 mins in presence of honokiol by coomassie brilliant blue staining based SDS-PAGE analysis; type: ADME, cell membranes; details: mda-mb-231, 0.5 h
[11] = Drug localization in human MDA-MB-231 cells assessed as increase in fluorescent band intensity at 10 uM incubated for 30 mins in presence of honokiol by coomassie brilliant blue staining based SDS-PAGE analysis; type: ADME, cell-based; details: mda-mb-231, 0.5 h
[12] = Drug localization in human membrane fraction of MDA-MB-231 cells assessed as increase in fluorescent band intensity at 10 uM incubated for 30 mins in presence of 2-O-ethylhonokiol by coomassie brilliant blue staining based SDS-PAGE analysis; type: ADME, cell membranes; details: mda-mb-231, 0.5 h
[13] = Drug localization in human MDA-MB-231 cells assessed as increase in fluorescent band intensity at 10 uM incubated for 30 mins in presence of 2-O-ethylhonokiol by coomassie brilliant blue staining based SDS-PAGE analysis; type: ADME, cell-based; details: mda-mb-231, 0.5 h
[14] = Drug localization in human SK-OV-3 cells assessed as increase in fluorescent band intensity at 10 uM incubated for 30 mins by coomassie brilliant blue staining based SDS-PAGE analysis; type: ADME, cell-based; details: sk-ov-3, 0.5 h
[15] = Drug localization in human OVCAR-3 cells assessed as increase in fluorescent band intensity at 10 uM incubated for 30 mins by coomassie brilliant blue staining based SDS-PAGE analysis; type: ADME, cell-based; details: ovcar-3, 0.5 h

| SMILES | IC50 (MDA-MB-231 [1]) | IC50 (SK-OV-3) | IC50 (OVCAR-3) | further results |
| --- | --- | --- | --- | --- |
| C=CCc1cc(-c2cc(CCCn3cc(CCCC(=O)Nc4ccc(C(=O)c5ccc(NC(=O)CCCC[C@@H]6SC[C@@H]7NC(=O)N[C@@H]76)cc5)cc4)nn3)ccc2OCC)ccc1O | > 100 µM | > 100 µM | > 100 µM |  |
| C=CCc1ccc(O)c(-c2ccc(O)c(CC=C)c2)c1 [HONOKIOL] | 46 µM | 48 µM | 51 µM | ΔTm [2]: 1 °C; ΔTm [3]: 2.3 °C; ΔTm [4]: 1.6 °C; ΔTm (MDA-MB-231 [5]): 4.3 °C |
| C=CCc1cc(-c2cc(Cc3cn(CCCCCC(=O)Nc4ccc(C(=O)c5ccc(NC(=O)CCCC[C@@H]6SC[C@@H]7NC(=O)N[C@@H]76)cc5)cc4)nn3)ccc2OCC)ccc1O | > 100 µM | > 100 µM | > 100 µM |  |
| C#CCCC1(CCC(=O)NCCCc2cc(-c3cc(CC=C)ccc3OCC)ccc2O)N=N1 | 39 µM | 44 µM | 50 µM | Drug uptake [6]: Dose-dependent-effect; Drug uptake [7]: Not_active; Drug uptake [8]: Not_active; Drug uptake [9]: Not_active; Drug uptake [10]: Not_active; Drug uptake [11]: Not_active; Drug uptake [12]: Not_active; Drug uptake [13]: Not_active |
| C=CCc1ccc(OCC)c(-c2ccc(O)c(CCCn3cc(CCCC(=O)Nc4ccc(C(=O)c5ccc(NC(=O)CCCC[C@@H]6SC[C@@H]7NC(=O)N[C@@H]76)cc5)cc4)nn3)c2)c1 | > 100 µM | > 100 µM | > 100 µM |  |
| C#CCCC1(CCC(=O)NCCCc2ccc(OCC)c(-c3ccc(O)c(CC=C)c3)c2)N=N1 | 37 µM | 39 µM | 30 µM | Drug uptake [6]: Dose-dependent-effect; Drug uptake [7]: Not_active; Drug uptake [8]: Active; Drug uptake [9]: Not_active; Drug uptake [10]: Not_active; Drug uptake [11]: Not_active; Drug uptake [12]: Not_active; Drug uptake [13]: Not_active; Drug uptake [14]: Active; Drug uptake [15]: Active |
| C=CCc1ccc(OCCCn2cc(CCCC(=O)Nc3ccc(C(=O)c4ccc(NC(=O)CCCC[C@@H]5SC[C@@H]6NC(=O)N[C@@H]65)cc4)cc3)nn2)c(-c2ccc(O)c(CC=C)c2)c1 | > 100 µM | > 100 µM | > 100 µM |  |
| C=CCc1ccc(OCC)c(-c2ccc(O)c(CC=C)c2)c1 | 28 µM | 43 µM | 37 µM |  |
